This passage reports EC50, AC50 and IC50 results from ChEMBL document CHEMBL1201862, “PubChem BioAssay data set” (2004).

Active and inactive are the calls of the source.

For series [1], the target named is T1, Heat shock factor protein 1 (Mus musculus, UniProt P38532).
T1 sequence (P38532 whole entry): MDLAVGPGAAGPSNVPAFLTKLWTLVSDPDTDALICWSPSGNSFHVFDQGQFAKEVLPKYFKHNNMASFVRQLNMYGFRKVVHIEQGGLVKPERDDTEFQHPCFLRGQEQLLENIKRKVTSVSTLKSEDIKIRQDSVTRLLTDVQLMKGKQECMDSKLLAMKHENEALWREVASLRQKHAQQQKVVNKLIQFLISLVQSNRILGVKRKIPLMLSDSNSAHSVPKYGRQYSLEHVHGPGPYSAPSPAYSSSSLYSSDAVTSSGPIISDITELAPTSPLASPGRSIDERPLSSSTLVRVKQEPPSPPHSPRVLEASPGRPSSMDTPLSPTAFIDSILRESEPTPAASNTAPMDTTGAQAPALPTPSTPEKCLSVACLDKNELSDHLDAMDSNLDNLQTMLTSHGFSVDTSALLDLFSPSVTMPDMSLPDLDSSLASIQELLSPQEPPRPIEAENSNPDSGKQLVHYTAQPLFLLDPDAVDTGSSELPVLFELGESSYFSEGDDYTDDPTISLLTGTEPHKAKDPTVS
The series can be described thus: decrease of HSF1-responsive luciferase luminescence – cell-based, NIH3T3, dose retest, confirmation (AID 2382).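 Note: NIH3T3 fibroblasts with HSF1-driven luciferase reporter stressed by proteasome inhibitor MG132; luminescence from HSF1-driven luciferase expression after 8 hours of MG132 stress.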 It is filed as functional.

Series [2] deals with Voltage-dependent T-type calcium channel subunit alpha-1H (Homo sapiens, UniProt O95180). The series is classed as functional.
Voltage-dependent T-type calcium channel subunit alpha-1H, sequence (O95180 whole entry): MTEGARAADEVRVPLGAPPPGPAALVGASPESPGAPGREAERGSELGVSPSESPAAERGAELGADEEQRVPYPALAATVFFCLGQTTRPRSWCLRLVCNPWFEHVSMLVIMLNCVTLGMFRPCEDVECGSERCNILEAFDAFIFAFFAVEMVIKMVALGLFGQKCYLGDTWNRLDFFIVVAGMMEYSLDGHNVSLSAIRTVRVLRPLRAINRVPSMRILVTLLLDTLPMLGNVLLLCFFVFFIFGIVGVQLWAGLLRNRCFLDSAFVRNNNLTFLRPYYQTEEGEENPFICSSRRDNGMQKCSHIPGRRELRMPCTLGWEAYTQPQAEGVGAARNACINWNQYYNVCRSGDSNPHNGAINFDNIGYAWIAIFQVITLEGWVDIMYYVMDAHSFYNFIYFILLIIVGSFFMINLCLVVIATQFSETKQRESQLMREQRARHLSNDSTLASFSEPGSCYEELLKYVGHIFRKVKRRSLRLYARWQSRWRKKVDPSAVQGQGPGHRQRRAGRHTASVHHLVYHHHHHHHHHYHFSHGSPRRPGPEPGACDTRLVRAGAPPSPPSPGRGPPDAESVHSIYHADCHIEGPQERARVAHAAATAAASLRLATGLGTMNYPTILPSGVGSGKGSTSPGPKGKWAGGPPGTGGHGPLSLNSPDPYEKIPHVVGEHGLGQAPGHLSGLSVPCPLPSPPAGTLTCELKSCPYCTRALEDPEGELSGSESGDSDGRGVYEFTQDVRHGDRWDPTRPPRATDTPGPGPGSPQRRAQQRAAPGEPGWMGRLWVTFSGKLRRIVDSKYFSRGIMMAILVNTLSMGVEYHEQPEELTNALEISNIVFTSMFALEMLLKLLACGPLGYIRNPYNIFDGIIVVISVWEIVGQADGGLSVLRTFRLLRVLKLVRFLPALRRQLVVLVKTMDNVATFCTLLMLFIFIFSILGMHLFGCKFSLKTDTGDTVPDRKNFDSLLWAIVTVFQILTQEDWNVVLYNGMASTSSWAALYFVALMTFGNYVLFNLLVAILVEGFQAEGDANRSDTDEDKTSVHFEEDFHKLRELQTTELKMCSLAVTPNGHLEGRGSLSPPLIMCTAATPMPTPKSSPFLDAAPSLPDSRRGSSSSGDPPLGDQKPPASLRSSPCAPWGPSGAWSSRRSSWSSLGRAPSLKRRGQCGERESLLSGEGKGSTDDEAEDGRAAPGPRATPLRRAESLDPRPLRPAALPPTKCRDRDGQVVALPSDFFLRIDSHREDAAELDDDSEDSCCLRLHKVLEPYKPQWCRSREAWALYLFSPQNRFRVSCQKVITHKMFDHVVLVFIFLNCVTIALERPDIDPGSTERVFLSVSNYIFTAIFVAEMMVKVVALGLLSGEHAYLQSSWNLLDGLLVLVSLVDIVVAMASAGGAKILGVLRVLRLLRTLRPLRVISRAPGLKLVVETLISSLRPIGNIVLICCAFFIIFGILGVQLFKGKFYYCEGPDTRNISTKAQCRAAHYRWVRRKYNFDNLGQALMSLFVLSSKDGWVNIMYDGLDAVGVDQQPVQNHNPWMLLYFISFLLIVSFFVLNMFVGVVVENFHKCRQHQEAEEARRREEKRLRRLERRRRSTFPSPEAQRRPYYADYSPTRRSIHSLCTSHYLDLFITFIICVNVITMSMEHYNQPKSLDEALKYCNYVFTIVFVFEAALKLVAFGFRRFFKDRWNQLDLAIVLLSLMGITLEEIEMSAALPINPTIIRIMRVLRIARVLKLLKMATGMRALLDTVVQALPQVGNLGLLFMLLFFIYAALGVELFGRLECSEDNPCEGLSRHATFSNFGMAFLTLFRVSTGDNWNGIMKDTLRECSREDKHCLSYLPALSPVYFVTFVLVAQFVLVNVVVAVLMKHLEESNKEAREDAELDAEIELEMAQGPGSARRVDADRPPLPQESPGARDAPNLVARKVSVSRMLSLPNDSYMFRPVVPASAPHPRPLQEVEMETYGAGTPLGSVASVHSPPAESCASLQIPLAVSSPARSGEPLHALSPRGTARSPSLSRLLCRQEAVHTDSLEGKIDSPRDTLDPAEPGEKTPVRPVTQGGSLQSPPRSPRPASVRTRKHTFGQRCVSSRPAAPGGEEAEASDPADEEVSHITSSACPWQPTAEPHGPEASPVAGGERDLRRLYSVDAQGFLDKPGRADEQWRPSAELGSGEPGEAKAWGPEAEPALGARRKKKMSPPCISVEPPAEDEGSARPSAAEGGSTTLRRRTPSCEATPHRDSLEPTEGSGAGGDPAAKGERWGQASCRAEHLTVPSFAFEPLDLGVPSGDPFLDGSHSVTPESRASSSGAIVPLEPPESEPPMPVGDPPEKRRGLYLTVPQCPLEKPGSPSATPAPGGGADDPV
The next series deals with Cytochrome P450 2D6 (Homo sapiens, UniProt P10635).
Cytochrome P450 2D6, sequence (P10635 whole entry): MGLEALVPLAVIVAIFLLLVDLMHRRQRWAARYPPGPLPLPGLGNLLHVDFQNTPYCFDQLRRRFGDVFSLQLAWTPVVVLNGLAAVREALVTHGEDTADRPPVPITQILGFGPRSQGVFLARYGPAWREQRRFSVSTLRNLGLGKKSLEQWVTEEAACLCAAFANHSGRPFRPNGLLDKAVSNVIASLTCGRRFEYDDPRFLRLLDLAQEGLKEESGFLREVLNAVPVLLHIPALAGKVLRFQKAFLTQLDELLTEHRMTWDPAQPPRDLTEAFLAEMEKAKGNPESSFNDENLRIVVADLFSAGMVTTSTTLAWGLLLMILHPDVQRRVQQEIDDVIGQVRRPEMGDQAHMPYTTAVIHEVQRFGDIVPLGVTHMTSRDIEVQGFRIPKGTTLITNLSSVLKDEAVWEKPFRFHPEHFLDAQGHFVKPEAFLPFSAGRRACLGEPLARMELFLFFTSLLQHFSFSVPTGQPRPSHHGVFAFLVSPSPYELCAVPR
Series [3] addresses T2, Cytochrome P450 3A4 (Homo sapiens, UniProt P08684).
Series [4] can be described thus: decrease of insulin promoter-GFP reporter – imaging, high-content screening, mouse beta cells (AID 1628). It is filed as functional. The settings on record: MIN6.
A short description of series [5]: MIN6 cell viability loss – mouse insulinoma, cytotoxicity control, dose response (AID 2122).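 Note: confirmatory high-throughput counterscreen run to flag cytotoxic compounds.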 The series is classed as functional.
Another series relates to INS1. Briefly: INS-1E survival protection against cytokine death – cell-based, luminescence, retest, dose response (AID 449756).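 Note: cell death triggered by IL-1 beta plus TNF-alpha plus IFN-gamma mixture; protective hits raise ATP signal compared with cytokine alone wells.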 The series is classed as functional. Particulars: Rattus norvegicus.
In series [6] the target is Photoreceptor-specific nuclear receptor (Homo sapiens, UniProt Q9Y5X4). It is filed as functional, cell-based.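 Note: CHO-S cells with Gal4-NCOR and VP16-NR2E3 two-hybrid luciferase reporter.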
Photoreceptor-specific nuclear receptor, sequence (Q9Y5X4 whole entry, the tested form may be a part): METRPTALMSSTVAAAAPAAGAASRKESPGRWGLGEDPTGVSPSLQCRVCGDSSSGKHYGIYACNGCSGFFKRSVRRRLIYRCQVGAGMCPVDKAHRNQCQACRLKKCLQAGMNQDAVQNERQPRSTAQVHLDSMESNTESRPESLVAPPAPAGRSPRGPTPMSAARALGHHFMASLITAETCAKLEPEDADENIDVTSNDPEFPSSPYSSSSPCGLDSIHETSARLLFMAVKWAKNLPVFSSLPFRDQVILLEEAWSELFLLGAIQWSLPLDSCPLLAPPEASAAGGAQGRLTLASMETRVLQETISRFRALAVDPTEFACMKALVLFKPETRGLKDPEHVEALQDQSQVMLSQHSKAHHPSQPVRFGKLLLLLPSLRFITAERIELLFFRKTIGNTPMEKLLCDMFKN
Series [7] has as its target T3, Tyrosine-protein phosphatase non-receptor type 22 (Homo sapiens, UniProt Q9Y2R2).
T3 sequence (Q9Y2R2 whole entry): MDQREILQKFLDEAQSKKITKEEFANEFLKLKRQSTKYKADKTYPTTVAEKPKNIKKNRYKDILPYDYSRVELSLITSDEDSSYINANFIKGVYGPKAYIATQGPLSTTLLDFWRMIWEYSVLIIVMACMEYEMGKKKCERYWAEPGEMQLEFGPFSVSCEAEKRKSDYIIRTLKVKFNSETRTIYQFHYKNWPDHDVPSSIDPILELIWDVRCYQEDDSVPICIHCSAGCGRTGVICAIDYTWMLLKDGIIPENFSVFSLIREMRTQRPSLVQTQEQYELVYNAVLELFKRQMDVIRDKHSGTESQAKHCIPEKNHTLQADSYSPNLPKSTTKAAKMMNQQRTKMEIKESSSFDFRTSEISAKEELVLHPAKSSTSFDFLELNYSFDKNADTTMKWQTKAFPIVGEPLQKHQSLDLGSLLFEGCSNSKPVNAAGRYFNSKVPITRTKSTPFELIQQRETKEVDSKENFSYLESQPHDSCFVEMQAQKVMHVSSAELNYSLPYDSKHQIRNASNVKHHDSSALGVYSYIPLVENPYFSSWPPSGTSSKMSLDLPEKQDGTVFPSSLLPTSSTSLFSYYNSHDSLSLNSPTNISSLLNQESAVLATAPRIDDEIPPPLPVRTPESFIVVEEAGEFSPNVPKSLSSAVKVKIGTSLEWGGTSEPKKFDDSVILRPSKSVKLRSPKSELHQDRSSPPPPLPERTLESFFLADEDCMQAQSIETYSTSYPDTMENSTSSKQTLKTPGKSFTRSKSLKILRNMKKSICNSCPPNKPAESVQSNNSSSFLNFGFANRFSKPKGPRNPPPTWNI
The series can be described thus: SAR LYP1 Fluorescent Assay using pCAP substrate for In Vitro dose response studies - Set 2. [Related pubchem assays (depositor defined):AID1779, AID1784, AID2135, AID449727]. It is filed as functional.

Series [8] has as its target T4, Tyrosine-protein phosphatase non-receptor type 12 (Homo sapiens, UniProt Q05209).
T4 sequence (Q05209 whole entry): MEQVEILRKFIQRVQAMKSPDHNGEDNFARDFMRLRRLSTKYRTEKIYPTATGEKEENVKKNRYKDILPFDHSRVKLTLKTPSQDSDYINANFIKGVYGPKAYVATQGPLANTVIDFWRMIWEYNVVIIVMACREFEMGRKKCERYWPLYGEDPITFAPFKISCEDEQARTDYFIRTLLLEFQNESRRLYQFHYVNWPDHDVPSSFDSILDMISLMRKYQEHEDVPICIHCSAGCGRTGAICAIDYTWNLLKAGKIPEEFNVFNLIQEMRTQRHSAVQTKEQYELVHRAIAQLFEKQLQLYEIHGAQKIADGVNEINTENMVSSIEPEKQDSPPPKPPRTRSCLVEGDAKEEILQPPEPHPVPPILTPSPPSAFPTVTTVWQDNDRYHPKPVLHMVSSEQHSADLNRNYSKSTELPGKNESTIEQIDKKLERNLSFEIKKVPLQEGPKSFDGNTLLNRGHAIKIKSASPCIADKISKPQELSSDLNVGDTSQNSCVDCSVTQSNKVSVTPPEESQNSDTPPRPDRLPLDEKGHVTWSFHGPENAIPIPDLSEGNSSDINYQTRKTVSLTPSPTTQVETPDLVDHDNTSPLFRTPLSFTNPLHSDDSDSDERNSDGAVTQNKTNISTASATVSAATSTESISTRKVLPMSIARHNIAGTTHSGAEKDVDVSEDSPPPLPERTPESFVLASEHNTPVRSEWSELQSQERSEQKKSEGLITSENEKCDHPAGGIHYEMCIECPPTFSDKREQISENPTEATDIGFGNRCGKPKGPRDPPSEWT
The series can be described thus: SAR Selectivity Analysis of small molecule inhibitors of PEST using pCAP in a fluorescence assay. [Related pubchem assays (depositor defined):AID1779, AID1784, AID2135]. It is filed as functional.

Series [9] deals with T3, Tyrosine-protein phosphatase non-receptor type 22. The series can be described thus: SAR LYP1 Fluorescent Assay using OMFP substrate for In Vitro dose response studies - Set 3. [Related pubchem assays (depositor defined):AID1779, AID1784, AID2140, AID2686]. The series is classed as functional.
Series [10] deals with T5, Tyrosine-protein phosphatase non-receptor type 7 (Homo sapiens, UniProt P35236).
T5 sequence (P35236 whole entry): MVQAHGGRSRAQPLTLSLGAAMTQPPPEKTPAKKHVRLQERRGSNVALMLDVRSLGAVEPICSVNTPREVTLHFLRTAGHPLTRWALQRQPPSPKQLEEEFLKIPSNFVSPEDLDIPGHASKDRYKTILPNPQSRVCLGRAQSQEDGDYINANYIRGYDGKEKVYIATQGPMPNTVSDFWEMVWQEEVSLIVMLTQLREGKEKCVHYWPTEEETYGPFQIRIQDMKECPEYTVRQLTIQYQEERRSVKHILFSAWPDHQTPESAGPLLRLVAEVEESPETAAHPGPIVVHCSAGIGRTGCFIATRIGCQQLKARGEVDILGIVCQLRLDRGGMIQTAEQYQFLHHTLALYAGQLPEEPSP
Briefly: inhibition of hematopoietic tyrosine phosphatase HePTP – biochemical, set 2, SAR follow-up (AID 449736). The series is classed as functional.

In series [11] the target is T3, Tyrosine-protein phosphatase non-receptor type 22. Briefly: inhibition of lymphoid tyrosine phosphatase LYP – biochemical, pCAP fluorogenic substrate, fluorescence, set 3, SAR follow-up (AID 449727). The series is classed as functional.
Series [12] shares this target. The series can be described thus: SAR LYP1 Fluorescent Assay using OMFP substrate for In Vitro dose response studies - Set 2. [Related pubchem assays (depositor defined):AID1779, AID1784, AID2140, AID449726, AID488869]. The series is classed as functional.
In series [13] the target is T6, Lysine-specific demethylase 4A (Homo sapiens, UniProt O75164).
T6 sequence (O75164 whole entry): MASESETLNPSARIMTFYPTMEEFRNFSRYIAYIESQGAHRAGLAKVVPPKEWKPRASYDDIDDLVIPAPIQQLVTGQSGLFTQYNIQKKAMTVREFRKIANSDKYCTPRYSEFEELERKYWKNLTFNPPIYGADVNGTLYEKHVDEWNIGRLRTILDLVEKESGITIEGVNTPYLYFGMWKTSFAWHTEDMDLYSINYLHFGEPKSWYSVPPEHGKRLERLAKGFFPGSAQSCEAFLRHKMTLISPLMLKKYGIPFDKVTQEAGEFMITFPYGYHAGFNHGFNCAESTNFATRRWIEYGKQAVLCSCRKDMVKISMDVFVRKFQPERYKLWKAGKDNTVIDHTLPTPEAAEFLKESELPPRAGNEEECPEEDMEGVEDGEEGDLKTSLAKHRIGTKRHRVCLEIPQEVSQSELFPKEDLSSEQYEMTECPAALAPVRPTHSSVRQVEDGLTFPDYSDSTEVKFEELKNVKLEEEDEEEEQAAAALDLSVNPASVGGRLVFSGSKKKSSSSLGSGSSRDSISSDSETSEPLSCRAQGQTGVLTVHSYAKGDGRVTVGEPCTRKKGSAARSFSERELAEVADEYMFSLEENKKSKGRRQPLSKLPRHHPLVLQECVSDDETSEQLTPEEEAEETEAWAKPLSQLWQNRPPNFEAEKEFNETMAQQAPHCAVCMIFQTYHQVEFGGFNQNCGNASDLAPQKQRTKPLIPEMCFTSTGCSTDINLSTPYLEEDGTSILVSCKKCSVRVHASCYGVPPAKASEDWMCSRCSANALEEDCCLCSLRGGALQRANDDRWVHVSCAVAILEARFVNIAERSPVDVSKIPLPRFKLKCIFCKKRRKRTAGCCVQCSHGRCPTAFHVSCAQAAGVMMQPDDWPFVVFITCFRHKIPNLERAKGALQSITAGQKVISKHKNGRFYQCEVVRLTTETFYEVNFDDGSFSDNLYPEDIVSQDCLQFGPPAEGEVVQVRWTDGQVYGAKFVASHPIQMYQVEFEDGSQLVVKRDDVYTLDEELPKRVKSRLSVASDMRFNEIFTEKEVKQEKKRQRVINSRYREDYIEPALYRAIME
The series can be described thus: inhibition of JMJD2A H3K9me3 demethylation – biochemical, DELFIA europium, cherry-picked samples, selectivity assay for GASC-1 inhibitor project, dose response (AID 488840).

A further series has as its target Cytochrome P450 2C19 (Homo sapiens, UniProt P33261). The series can be described thus: Cytochrome panel assay with activity outcomes. Panel member name: p450-cyp2c19 Compounds with AC50 equal or less than 10 uM are considered active. The series is classed as functional.
Series [14] deals with T2, Cytochrome P450 3A4. The source holds these as a separate data set.
Another series has as its target Cytochrome P450 2C9 (Homo sapiens, UniProt P11712).

T2 sequence (P08684 whole entry): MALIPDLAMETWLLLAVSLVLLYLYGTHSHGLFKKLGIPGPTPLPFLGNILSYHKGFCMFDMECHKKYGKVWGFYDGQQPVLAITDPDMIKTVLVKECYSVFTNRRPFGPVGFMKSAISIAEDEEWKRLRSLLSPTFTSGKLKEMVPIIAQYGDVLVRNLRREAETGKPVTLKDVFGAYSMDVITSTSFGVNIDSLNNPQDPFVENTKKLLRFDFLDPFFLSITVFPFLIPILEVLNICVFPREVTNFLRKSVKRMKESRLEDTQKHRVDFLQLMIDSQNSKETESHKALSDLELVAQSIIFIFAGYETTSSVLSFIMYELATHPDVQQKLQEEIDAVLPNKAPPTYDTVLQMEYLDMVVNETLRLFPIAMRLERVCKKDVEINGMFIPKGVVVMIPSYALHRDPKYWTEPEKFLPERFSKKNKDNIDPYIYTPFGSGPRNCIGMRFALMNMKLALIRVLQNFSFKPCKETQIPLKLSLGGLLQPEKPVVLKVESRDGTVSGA
Cytochrome P450 2C19, sequence (P33261 whole entry): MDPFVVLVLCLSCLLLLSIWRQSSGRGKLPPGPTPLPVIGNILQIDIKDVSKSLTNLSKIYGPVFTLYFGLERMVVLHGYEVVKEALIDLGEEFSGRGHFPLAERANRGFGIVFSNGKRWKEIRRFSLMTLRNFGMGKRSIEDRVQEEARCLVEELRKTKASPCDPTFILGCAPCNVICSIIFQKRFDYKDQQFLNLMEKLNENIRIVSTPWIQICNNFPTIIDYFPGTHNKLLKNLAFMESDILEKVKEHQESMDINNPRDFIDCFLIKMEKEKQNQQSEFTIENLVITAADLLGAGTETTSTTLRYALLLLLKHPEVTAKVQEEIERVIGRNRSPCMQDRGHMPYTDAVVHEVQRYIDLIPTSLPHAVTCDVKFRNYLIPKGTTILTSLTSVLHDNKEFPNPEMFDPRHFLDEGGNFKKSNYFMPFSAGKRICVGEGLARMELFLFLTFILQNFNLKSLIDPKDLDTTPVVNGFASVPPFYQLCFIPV
Cytochrome P450 2C9, sequence (P11712 whole entry): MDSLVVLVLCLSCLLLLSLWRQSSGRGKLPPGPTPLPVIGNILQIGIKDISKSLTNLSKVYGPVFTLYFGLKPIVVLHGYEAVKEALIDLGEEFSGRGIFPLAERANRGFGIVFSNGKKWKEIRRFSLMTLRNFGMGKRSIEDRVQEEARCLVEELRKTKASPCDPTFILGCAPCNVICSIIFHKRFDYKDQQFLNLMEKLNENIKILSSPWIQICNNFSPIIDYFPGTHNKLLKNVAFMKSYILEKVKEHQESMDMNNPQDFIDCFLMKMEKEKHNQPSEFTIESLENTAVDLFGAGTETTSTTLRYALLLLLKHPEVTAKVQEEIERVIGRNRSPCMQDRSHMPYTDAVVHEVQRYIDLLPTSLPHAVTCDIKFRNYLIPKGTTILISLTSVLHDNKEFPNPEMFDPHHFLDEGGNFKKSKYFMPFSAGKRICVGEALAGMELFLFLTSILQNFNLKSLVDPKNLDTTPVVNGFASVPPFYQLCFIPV

In general, EC50 refers to the concentration giving half of the maximal effect. Usually AC50 stands for the midpoint of the concentration-response curve, whichever way the signal moves. Regarding `O=S(=O)(Cc1cc(Oc2ccccc2)nc(-c2ccccc2)n1)c1ccccc1`, the EC50 in series [1] was > 195 µM (not active); in [2], 19.2 µM (active). The AC50 entry at Cytochrome P450 2D6 and at Cytochrome P450 3A4 [3] was “inconclusive” in each case.
Broadly, the IC50 is the concentration that gives 50% inhibition. As to `O=C(COc1ccc2ccccc2c1)N1CCN(Cc2c[nH]c3ccccc23)CC1`, the IC50 is 4.5 µM (active) in series [4] and 3.26 µM (active) in [5]. In addition, in the series on INS1, the AC50 was 2.58 µM (active).
In the case of `Cc1nc2ncnn2c(N2CCN(c3cccc(C(F)(F)F)c3)CC2)c1C`, the IC50 in series [4] is 2.94 µM (active); in series [5], 3.77 µM (active); in series [6], 0.838 µM (active).
Turning to `C/C(=N/NC(=O)c1ccccc1)c1ccc(OCC(=O)O)cc1`, the IC50 in [7], in series [8], in series [9], in series [10], in series [11] and in [12] was > 100 µM (inactive) throughout.
`COc1cc2c(cc1OC)C1=C(C#N)COCN1CC2`: in series [13], the AC50 is 0.644 µM (active).
As to `CC1(C)[C@@H]2CC[C@@](C)(C2)[C@H]1OC(=O)c1ccccc1C(=O)O`, the AC50 entry on Cytochrome P450 2C19 was “inconclusive”; at Cytochrome P450 3A4 [14], 3.98 µM (inconclusive); on Cytochrome P450 2C9, 3.16 µM (inconclusive); on Cytochrome P450 2D6 it was “inconclusive”.
